From patent publication US9765092B2, “Tricyclic piperidine compounds” (ACTELION PHARMACEUTICALS LTD, priority 2013, dated 2017)

Target: human TPH1 (Homo sapiens (Human), UniProt P17752)
Test: Biochemical in vitro assay using fluorescence readout (TPH1 inhibition)
Settings: full length human TPH1, 40 μM L-tryptophan, 15° C., 60 minutes, fluorescence at 540 nm; mean if determined several times

Sequence of human TPH1 (P17752 whole entry): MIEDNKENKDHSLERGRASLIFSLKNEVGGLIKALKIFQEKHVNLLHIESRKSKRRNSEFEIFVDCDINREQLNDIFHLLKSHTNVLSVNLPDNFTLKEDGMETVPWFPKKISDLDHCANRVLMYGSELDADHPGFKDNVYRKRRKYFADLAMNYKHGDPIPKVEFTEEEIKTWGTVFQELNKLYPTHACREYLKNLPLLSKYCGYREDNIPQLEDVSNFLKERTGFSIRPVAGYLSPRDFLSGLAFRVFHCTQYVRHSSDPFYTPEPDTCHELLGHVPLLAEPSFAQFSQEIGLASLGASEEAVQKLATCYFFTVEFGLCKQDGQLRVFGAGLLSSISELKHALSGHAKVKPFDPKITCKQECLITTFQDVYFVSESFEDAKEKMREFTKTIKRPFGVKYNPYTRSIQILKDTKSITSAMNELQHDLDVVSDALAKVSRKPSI

Compound | IC50 [µM]
Cc1nn2c3c(nc2s1)CCN(C(=O)COc1ccc(C(F)(F)F)cc1Cl)C3c1cnc(N(C)C)s1 (centres unmarked) [Example 1.22.5, 2-(2-Chloro-4-(trifluoromethyl)phenoxy)-1-(5-(2-(dimethylamino)thiazol-5-yl)-2-methyl-7,8-dihydro-[1,3,4]thiadiazolo[2′,3′:2,3]imidazo[4,5-c]pyridin-6(5H)-yl)ethanone] | 0.13
Cc1nn2c3c(nc2s1)CCN(C(=O)COc1ccc(NS(C)(=O)=O)nc1Cl)C3c1cnc(N(C)C)s1 (centres unmarked) [Example 1.22.6, N-(6-Chloro-5-(2-(5-(2-(dimethylamino)thiazol-5-yl)-2-methyl-7,8-dihydro-[1,3,4]thia-diazolo[2′,3′:2,3]imidazo[4,5-c]pyridin-6(5H)-yl)-2-oxoethoxy)pyridin-2-yl)methane-sulfonamide] | 0.039
Cc1nn2c3c(nc2s1)CCN(C(=O)COc1ccc(N2CC(F)(F)C2)nc1Cl)C3c1ncc(C(=O)N(C)C)s1 (centres unmarked) [Example 1.37.2, 2-(6-(2-((2-Chloro-6-(3,3-difluoroazetidin-1-yl)pyridin-3-yl)oxy)acetyl)-2-methyl-5,6,7,8-tetrahydro-[1,3,4]thiadiazolo[2′,3′:2,3]imidazo[4,5-c]pyridin-5-yl)-N,N-dimethylthiazole-5-carboxamide] | 0.051
CONC(=O)c1ccc(OCC(=O)N2CCc3nc4sc(C)nn4c3C2c2ccc(Cl)cc2F)c(Cl)n1 (centres unmarked) [Example 1.4.41, 6-Chloro-5-(2-(5-(4-chloro-2-fluorophenyl)-2-methyl-7,8-dihydro-[1,3,4]thiadiazolo[2′,3′:2,3]imidazo[4,5-c]pyridin-6(5H)-yl)-2-oxoethoxy)-N-methoxypicolinamide] | 0.006
CNC(=O)c1ccc(OCC(=O)N2CCc3nc4sc(C)nn4c3C2c2ncc(C(=O)N(C)C)s2)c(Cl)n1 (centres unmarked) [Example 1.37.1, 2-(6-(2-((2-Chloro-6-(methylcarbamoyl)pyridin-3-yl)oxy)acetyl)-2-methyl-5,6,7,8-tetra-hydro-[1,3,4]thiadiazolo[2′,3′:2,3]imidazo[4,5-c]pyridin-5-yl)-N,N-dimethylthiazole-5-carboxamide] | 0.176
Cc1nn2c3c(nc2s1)CCN(C(=O)COc1cccnc1Cl)C3c1cnc(N(C)C)s1 (centres unmarked) [Example 1.22.7, 2-((2-Chloropyridin-3-yl)oxy)-1-(5-(2-(dimethylamino)thiazol-5-yl)-2-methyl-7,8-dihydro[1,3,4]thiadiazolo[2′,3′:2,3]imidazo[4,5-c]pyridin-6(5H)-yl)ethanone] | 0.081

Same assay, conditions: human TPH1, fluorescence readout

Compound | IC50 [µM]
Cc1nn2c3c(nc2s1)CCN(C(=O)COc1ccc(C(=O)N(C)C)nc1Cl)C3c1ncccc1F (centres unmarked) [Example 1.35.2, 6-chloro-5-(2-(5-(3-fluoropyridin-2-yl)-2-methyl-7,8-dihydro-[1,3,4]thiadiazolo[2′,3′:2,3]imidazo[4,5-c]pyridin-6(5H)-yl)-2-oxoethoxy)-N,N-dimethylpicolinamide] | 0.045
Cc1nn2c3c(nc2s1)CCN(C(=O)COc1ccc(CN2CCOCC2)nc1Cl)C3c1ccc(Cl)cc1F (centres unmarked) [Example 1.4.1, 1-(5-(4-chloro-2-fluorophenyl)-2-methyl-7,8-dihydro-[1,3,4]thiadiazolo[2′,3′:2,3]imidazo[4,5-c]pyridin-6(5H)-yl)-2-((2-chloro-6-(morpholinomethyl)pyridin-3-yl)oxy)ethanone] | 0.009
CS(=O)(=O)Nc1ccc(OCC(=O)N2CCc3nc4sccn4c3C2c2sccc2F)c(Cl)c1 (centres unmarked) [Example 6.8.5, N-(3-chloro-4-(2-(5-(3-fluorothiophen-2-yl)-7,8-dihydro-thiazolo[2′,3′:2,3]imidazo[4,5-c]pyridin-6(5H)-yl)-2-oxoethoxy)phenyl)methanesulfonamide] | 0.009
Cc1nn2c3c(nc2s1)CCN(C(=O)COc1ccc(NS(C)(=O)=O)nc1Cl)C3c1cnc(C(=O)N(C)C)s1 (centres unmarked) [Example 1.34.3, 5-(6-(2-((2-chloro-6-(methylsulfonamido)pyridin-3-yl)oxy)acetyl)-2-methyl-5,6,7,8-tetrahydro-[1,3,4]thiadiazolo [2′,3′:2,3]imidazo[4,5-c]pyridin-5-yl)-N,N-dimethylthiazole-2-carboxamide] | 0.104
CCc1cc(F)ccc1OCC(=O)N1CCc2nc3sccn3c2C1c1ccc(C)cc1F (centres unmarked) [Example 6.10.4, 2-(2-ethyl-4-fluorophenoxy)-1-(5-(2-fluoro-4-methyl-phenyl)-7,8-dihydrothiazolo[2′,3′:2,3]imidazo[4,5-c]-pyridin-6(5H)-yl)ethanone] | 0.006
O=C(COc1ccc(CN2CCOCC2)nc1Cl)N1CCc2nc3sccn3c2C1c1ccc(Cl)cc1F (centres unmarked) [Example 6.4.5, 1-(5-(4-chloro-2-fluorophenyl)-7,8-dihydrothiazolo-[2′,3′:2,3]imidazo[4,5-c]pyridin-6(5H)-yl)-2-((2-chloro-6-(morpholinomethyl)pyridin-3-yl)oxy)ethanone] | 0.007
CCc1nc(NS(C)(=O)=O)ccc1OCC(=O)N1CCc2nc3sc(CF)nn3c2C1c1sc(C)nc1C (centres unmarked) [Example 7.4.2, N-(5-(2-(5-(2,4-dimethylthiazol-5-yl)-2-(fluoromethyl)-7,8-dihydro-[1,3,4]thiadiazolo[2′,3′:2,3]imidazo[4,5-c]pyridin-6(5H)-yl)-2-oxoethoxy)-6-ethylpyridin-2-yl)methanesulfonamide] | 0.007
5-(2-(5-(4-(aminomethyl)-2-fluorophenyl)-2-methyl-7,8-dihydro-[1,3,4]thiadiazolo[2′,3′:2,3]imidazo[4,5-c]pyridin-6(5H)-yl)-2-oxoethoxy)-6-chloro-N-cyclopropylpicolinamide [Example 1.78.2] | 0.018
N#Cc1ccc(OCC(=O)N2CCc3nc4sccn4c3C2c2ncc(C3CC3)cc2F)c(Cl)n1 (centres unmarked) [Example 6.7.2, 6-chloro-5-(2-(5-(5-cyclopropyl-3-fluoropyridin-2-yl)-7,8-dihydrothiazolo[2′,3′:2,3]imidazo[4,5-c]pyridin-6(5H)-yl)-2-oxoethoxy)picolinonitrile] | 0.017
Cc1cc(Cl)ccc1OCC(=O)N1CCc2nc3sccn3c2C1c1cnn(-c2ccccc2)c1 (centres unmarked) [Example 6.13.7, 2-(4-chloro-2-methylphenoxy)-1-(5-(1-phenyl-1H-pyrazol-4-yl)-7,8-dihydrothiazolo[2′,3′:2,3]imidazo[4,5-c]pyridin-6(5H)-yl)ethanone] | 0.026
Cc1nn2c3c(nc2s1)CCN(C(=O)COc1ccc(N(C)C)nc1Cl)C3c1ccc(Cl)nc1F (centres unmarked) [Example 1.16.1, 1-(5-(6-chloro-2-fluoropyridin-3-yl)-2-methyl-7,8-dihydro-[1,3,4]thiadiazolo[2′,3′:2,3]imidazo[4,5-c]pyridin-6(5H)-yl)-2-((2-chloro-6-(dimethylamino)pyridin-3-yl)oxy)ethanone] | 0.005
Cc1nn2c3c(nc2s1)CCN(C(=O)COc1ccc(C#N)cc1Cl)C3c1scnc1C (centres unmarked) [Example 1.32.2, 3-chloro-4-(2-(2-methyl-5-(4-methylthiazol-5-yl)-7,8-dihydro-[1,3,4]thiadiazolo[2′,3′:2,3]imidazo[4,5-c]pyridin-6(5H)-yl)-2-oxoethoxy)benzonitrile] | 0.083
CCc1nc(Cl)ncc1OCC(=O)N1CCc2nc3sc(C)nn3c2[C@@H]1c1ncc(C)cc1F [Example 1.31.18, (R)-2-((2-chloro-4-ethylpyrimidin-5-yl)oxy)-1-(5-(3-fluoro-5-methylpyridin-2-yl)-2-methyl-7,8-dihydro-[1,3,4]thiadiazolo[2′,3′:2,3]imidazo[4,5-c]pyridin-6(5H)-yl)ethanone] | 0.049
COC(=O)c1ccc(OCC(=O)N2CCc3nc4sc(C)nn4c3C2c2ccc(Cl)cc2F)c(Cl)n1 (centres unmarked) [Example 1.4.8, Methyl 6-chloro-5-(2-(5-(4-chloro-2-fluorophenyl)-2-methyl-7,8-dihydro-[1,3,4]thiadiazolo[2′,3′:2,3]imidazo[4,5-c]pyridin-6(5H)-yl)-2-oxoethoxy)picolinate] | 0.032
Cc1nn2c3c(nc2s1)CCN(C(=O)COc1ccc(N2CCOCC2)nc1Cl)C3c1ncc(C2CC2)cc1F (centres unmarked) [Example 1.14.1, 2-((2-chloro-6-morpholinopyridin-3-yl)oxy)-1-(5-(5-cyclopropyl-3-fluoropyridin-2-yl)-2-methyl-7,8-dihydro-[1,3,4]thiadiazolo[2′,3′:2,3]imidazo[4,5-c]pyridin-6(5H)-yl)ethanone] | 0.004
Cc1ccc(OCC(=O)N2CCc3nc4sccn4c3C2c2cnn(-c3ccccc3)c2)cc1 (centres unmarked) [Example 6.13.3, 1-(5-(1-phenyl-1H-pyrazol-4-yl)-7,8-dihydrothiazolo-[2′,3′:2,3]imidazo[4,5-c]pyridin-6(5H)-yl)-2-(p-tolyl-oxy)ethanone] | 0.053
CCOC(=O)c1csc(C2c3c(nc4sc(C)nn34)CCN2C(=O)COc2ccc(C(F)(F)F)nc2Cl)n1 (centres unmarked) [Example 1.27.2, Ethyl 2-(6-(2-((2-chloro-6-(trifluoromethyl)pyridin-3-yl)oxy)acetyl)-2-methyl-5,6,7,8-tetrahydro-[1,3,4]thiadiazolo [2′,3′:2,3]imidazo[4,5-c]pyridin-5-yl)thiazole-4-carboxylate] | 0.5
COC(=O)c1ccc(C2c3c(nc4sc(C)nn34)CCN2C(=O)COc2ccc(N3CCOCC3)nc2Cl)o1 (centres unmarked) [Example 1.26.1, Methyl 5-(6-(2-((2-chloro-6-morpholinopyridin-3-yl)oxy)acetyl)-2-methyl-5,6,7,8-tetrahydro-[1,3,4]thiadiazolo [2′,3′:2,3]imidazo[4,5-c]pyridin-5-yl)furan-2-carboxylate] | 0.01
Cc1nn2c3c(nc2s1)CCN(C(=O)COc1ccc(N2CCOCC2)nc1F)C3c1ncc(C2CC2)cc1F (centres unmarked) [Example 1.14.5, 1-(5-(5-cyclopropyl-3-fluoropyridin-2-yl)-2-methyl-7,8-dihydro-[1,3,4]thiadiazolo[2′,3′:2,3]imidazo[4,5-c]pyridine-6(5H)-yl)-2-((2-fluoro-6-morpholinopyridin-3-yl)oxy)ethanone] | 0.009
CCc1nn2c3c(nc2s1)CCN(C(=O)COc1ccc(NS(C)(=O)=O)nc1Cl)C3c1ccc(Cl)cc1F (centres unmarked) [Example 3.1.1, N-(6-chloro-5-(2-(5-(4-chloro-2-fluorophenyl)-2-ethyl-7,8-dihydro-[1,3,4]thiadiazolo[2′,3′:2,3]imidazo[4,5-c]-pyridin-6(5H)-yl)-2-oxoethoxy)pyridin-2-yl)methanesulfonamide] | 0.013
